Laboratory results taken from ChEMBL document CHEMBL4673302, “Efficient synthesis and antitumor evaluation of 4-aminomethyl-N-arylpyrazoles: Discovery of potent and selective agents for ovarian cancer” (Bioorg Med Chem, 2021).

Columns and labels:
[1] = system: OVCAR-3; test: Anticancer activity against human OVCAR-3 cells assessed as cell growth inhibition measured after 48 hrs by sulforhodamine B assay; format: functional; conditions: 48 h
[2] = system: K562; test: Anticancer activity against human K562 cells assessed as cell growth inhibition measured after 48 hrs by sulforhodamine B assay; format: functional; conditions: 48 h
[3] = system: 786-0; test: Anticancer activity against human 786-0 cells assessed as cell growth inhibition measured after 48 hrs by sulforhodamine B assay; format: functional
[4] = system: NCI-H460; test: Anticancer activity against human NCI-H460 cells assessed as cell growth inhibition measured after 48 hrs by sulforhodamine B assay; format: functional
[5] = system: MCF7; test: Anticancer activity against human MCF7 cells assessed as cell growth inhibition measured after 48 hrs by sulforhodamine B assay; format: functional
[6] = system: HT-29; test: Anticancer activity against human HT-29 cells assessed as cell growth inhibition measured after 48 hrs by sulforhodamine B assay; format: functional
[7] = system: U-251; test: Anticancer activity against human U-251 cells assessed as cell growth inhibition measured after 48 hrs by sulforhodamine B assay; format: functional
[8] = system: HaCaT; test: Cytotoxicity against human HaCaT cells assessed as cell growth inhibition measured after 48 hrs by sulforhodamine B assay; format: cell-based; conditions: hacat, 48 h
[9] = system: PC-3; test: Anticancer activity against human PC-3 cells assessed as cell growth inhibition measured after 48 hrs by sulforhodamine B assay; format: functional

Row | Compound | GI50 [1] [µM] | GI50 [2] [µM] | GI50 ([3]; 48 h) [µM] | GI50 ([4]; 48 h) [µM] | GI50 ([5]; 48 h) [µM] | GI50 ([6]; 48 h) [µM] | GI50 ([7]; 48 h) [µM] | GI50 ([9]; 48 h) [µM] | GI50 ([6]; Homo sapiens, HT-29, 48 h) [µM] | GI50 ([3]; Homo sapiens, 786-0, 48 h) [µM] | GI50 ([5]; Homo sapiens, MCF7, 48 h) [µM] | GI50 ([7]; Homo sapiens, U-251, 48 h) [µM] | GI50 ([9]; Homo sapiens, PC-3, 48 h) [µM] | GI50 ([4]; Homo sapiens, NCI-H460, 48 h) [µM] | GI50 [8] [µM]
1 | CCOC(=O)c1nn(-c2ccc(Cl)cc2)c(-c2ccc(OC)cc2)c1CNC(C)(C)C [listing 1 of 2 here] | > 524 | > 524 | > 524 | > 524 | > 524 | > 524 | > 524 | > 524 |  |  |  |  |  |  | > 524
2 | CCOC(=O)c1nn(-c2ccc(Cl)cc2)c(-c2ccc(C)cc2)c1CNC(C)(C)C [listing 1 of 2 here] | > 542 | > 542 | > 542 | > 542 | > 542 | > 542 | > 542 | > 542 |  |  |  |  |  |  | > 542
3 | CCOC(=O)c1nn(-c2ccccc2)c(-c2ccccc2)c1CNC(C)(C)C [listing 2 of 2 here] | 195 | 113 | 42.4 | 195 | 504 | 94.6 | 440 | 91.7 |  |  |  |  |  |  | 13.3
4 | CCOC(=O)c1nn(-c2ccc(Cl)cc2)c(-c2ccc(Cl)cc2)c1CNC(C)(C)C [listing 2 of 2 here] | > 520 | > 520 | > 520 | > 520 | > 520 | > 520 | > 520 | > 520 |  |  |  |  |  |  | > 520
5 | CCOC(=O)c1nn(-c2ccc(Cl)cc2)c(-c2ccc(F)cc2)c1CNC(C)(C)C [listing 1 of 2 here] | > 538 | > 538 | > 538 | > 538 | > 538 | > 538 | > 538 | > 538 |  |  |  |  |  |  | > 538
6 | CCOC(=O)c1nn(-c2ccc(Cl)cc2)c(-c2ccc(F)cc2)c1CNC(C)(C)C [listing 2 of 2 here] | 159 | 78.5 |  |  |  | 87.1 |  |  |  | > 582 | > 582 | 519 | 405 | 344 | 24.7
7 | CCOC(=O)c1nn(-c2ccccc2)c(-c2ccc([N+](=O)[O-])cc2)c1CNC(C)(C)C | 288 | 191 | > 546 | 327 | 168 | 35.1 | > 546 | 128 |  |  |  |  |  |  | 130
8 | CCOC(=O)c1nn(-c2ccccc2)c(-c2ccc(Br)cc2)c1CNC(C)(C)C [listing 2 of 2 here] | > 509 | > 509 | > 509 | > 509 | > 509 | > 509 | > 509 | > 509 |  |  |  |  |  |  | > 509
9 | CCOC(=O)c1nn(-c2ccccc2)c(-c2ccc(Cl)cc2)c1CNC(C)(C)C [listing 2 of 2 here] | > 559 | > 559 | > 559 | > 559 | > 559 | > 559 | > 559 | > 559 |  |  |  |  |  |  | > 559
10 | CCOC(=O)c1nn(-c2ccc(Cl)cc2)c(-c2ccccc2)c1CNC(C)(C)C | > 559 | > 559 | > 559 | > 559 | > 559 | > 559 | > 559 | > 559 |  |  |  |  |  |  | > 559
11 | CCOC(=O)c1nn(-c2ccc(Cl)cc2)c(-c2ccc(Br)cc2)c1CNC(C)(C)C | > 476 | > 476 | > 476 | > 476 | > 476 | > 476 | > 476 | > 476 |  |  |  |  |  |  | > 476
12 | CCOC(=O)c1nn(-c2ccccc2)c(-c2ccc(C)cc2)c1CNC(C)(C)C [listing 2 of 2 here] | > 585 | > 585 | > 585 | > 585 | > 585 | > 585 | > 585 | > 585 |  |  |  |  |  |  | > 585

The next compounds have a lower GI50 [1] than those just listed; values first:

Row | GI50 [1] [µM] | GI50 [2] [µM] | GI50 ([3]; 48 h) [µM] | GI50 ([4]; 48 h) [µM] | GI50 ([5]; 48 h) [µM] | GI50 ([6]; 48 h) [µM] | GI50 ([7]; 48 h) [µM] | GI50 ([9]; 48 h) [µM] | GI50 ([6]; Homo sapiens, HT-29, 48 h) [µM] | GI50 ([3]; Homo sapiens, 786-0, 48 h) [µM] | GI50 ([5]; Homo sapiens, MCF7, 48 h) [µM] | GI50 ([7]; Homo sapiens, U-251, 48 h) [µM] | GI50 ([9]; Homo sapiens, PC-3, 48 h) [µM] | GI50 ([4]; Homo sapiens, NCI-H460, 48 h) [µM] | Compound | GI50 [8] [µM]
13 | 92.1 | 161 | 319 | 179 | 517 | 29.9 | > 580 | 82.1 |  |  |  |  |  |  | CCOC(=O)c1nn(-c2ccccc2)c(-c2ccc(F)cc2)c1CNC(C)(C)C [listing 2 of 2 here] | 32.9
14 | 49.2 | 106 |  |  | 141 | 106 | 151 | 249 |  | > 588 |  |  |  | 277 | CCOC(=O)c1nn(-c2ccc(Cl)cc2)c(-c2ccc(C)cc2)c1CNC(C)(C)C [listing 2 of 2 here] | 144
15 | 35.4 | 6.1 | 119 | 27 | 238 | 45.3 |  | 210 |  |  |  | 431 |  |  | CCOC(=O)c1nn(-c2ccc(Cl)cc2)c(-c2ccc(OC)cc2)c1CNC(C)(C)C [listing 2 of 2 here] | 60.1
16 | 21.6 | 11.2 | 73.7 | 144 | 120 | 57.7 | 6.4 | 196 |  |  |  |  |  |  | CCOC(=O)c1nn(-c2ccc(Cl)cc2)c(-c2ccc(Cl)cc2)c1CNC(C)(C)C [listing 1 of 2 here] | 2.9
17 | 17.1 | 29.8 | 166 | 148 | 244 | 44.2 | 527 | 245 |  |  |  |  |  |  | CCOC(=O)c1nn(-c2ccccc2)c(-c2ccc(OC)cc2)c1CNC(C)(C)C [listing 1 of 2 here] | 19.2
18 | 16.1 | 14.8 | 51.2 | 52.8 | 205 | 40.8 | 340 | 304 |  |  |  |  |  |  | CCOC(=O)c1nn(-c2ccc(Cl)cc2)c(-c2ccc([N+](=O)[O-])cc2)c1CNC(C)(C)C | 145
19 | 2.91 | 22 | 83.9 | 118 | 74.2 | 21.8 | 71.9 | 15.9 |  |  |  |  |  |  | CCOC(=O)c1nn(-c2ccccc2)c(-c2ccc(Br)cc2)c1CNC(C)(C)C [listing 1 of 2 here] | 61.7
20 | 1.01 | 9.62 | 144 | 76.9 | 81.7 |  | 81.5 | 39.9 | 69.6 |  |  |  |  |  | CCOC(=O)c1nn(-c2ccccc2)c(-c2ccccc2)c1CNC(C)(C)C [listing 1 of 2 here] | 77
21 | 0.134 | 57.6 | 86.7 | 69.2 | 72.4 | 58.5 | 73.8 | 28.6 |  |  |  |  |  |  | CCOC(=O)c1nn(-c2ccccc2)c(-c2ccc(Cl)cc2)c1CNC(C)(C)C [listing 1 of 2 here] | 63.5
22 | 0.054 | 11.3 | 86.1 | 75.2 | 78.2 | 68.1 | 65.4 | 59.9 |  |  |  |  |  |  | CCOC(=O)c1nn(-c2ccccc2)c(-c2ccc(C)cc2)c1CNC(C)(C)C [listing 1 of 2 here] | 72.1
23 | 0.047 | 66.6 | 537 |  | 116 |  | 134 | 530 | 61.3 |  |  |  |  | 119 | CCOC(=O)c1nn(-c2ccccc2)c(-c2ccc(OC)cc2)c1CNC(C)(C)C [listing 2 of 2 here] | 68.3
24 | 0.013 | 75.7 |  | 365 |  | 65.4 |  |  |  | > 632 | 306 | > 632 | 69.3 |  | CCOC(=O)c1nn(-c2ccccc2)c(-c2ccc(F)cc2)c1CNC(C)(C)C [listing 1 of 2 here] | 74.5
